Source: patent US11738095B2, “Cyanine-containing compounds for cancer imaging and treatment” (Emory University, priority 2007, dated 2023)
Read-outs that look alike come from different tables or passages of the source.

Experiments:
[1] = distribution of MHI-148 in normal mice, in vivo and ex vivo organ imaging (FIG. 3); design: species or system mouse; settings: for fluorescence of isolated liver, kidney and testis: Xenogen
Description: MHI-148 (5 nmol) was given by tail vein injection and the MHI-148 distribution followed at 2, 6, and 96 hrs. At the end of this study, mice were sacrificed at 6 or 80 hrs after MHI-148 tail vein administration. […] The isolated tissues and organs excised from mice at 6 hours and 80 hours after receiving 5 nmol MHI-148 were also imaged by the Xenogen machine and the signals were compared by fluorescence intensity.

[2] = test system: normal prostate epithelial cells NPE and normal human skin epithelial cells HaCaT; assay: uptake of MHI-148 by normal epithelial cells in culture (FIG. 1); type: cell-based; settings: 100 μM, two hours
Description: (§1) All the cells were cultured with 100 μM MHI-148 in basal media (T-medium with 5% fetal bovine serum and 1% antibiotics) for two hours and were imaged under an inverted microscope. These conditions are the usual conditions used here unless otherwise specified.

[3] = test system: human ARCaPM prostate cancer cells; assay: imaging of MHI-148 tagged ARCaPM cells in test tubes (FIG. 2A); type: cell-based; settings: 1, 10 and 100 μM, incubation 2 hours, excitation 720 nm, emission 850 nm
Description: (§2) After incubation for 2 hours, cells were washed 3 times with PBS, harvested by centrifuge and imaged. One million of the MHI-148 tagged ARCaPM cells with different concentrations were injected subcutaneously in the back of the mouse and imaged at the same time (B). […] All the in vitro and in vivo imaging was performed using a Kodak multimodal-imaging system IS2000MM (Kodak) equipped with an excitation bandpass filter at 720 nm and an emission at 850 nm. Exposure time was 30 s per image. The images were analyzed using the imaging station IS2000MM software (Kodak 1D Image Analysis Software; Kodak).

[4] = test system: normal prostate fibroblasts, marrow stromal cells BMC, normal vascular endothelial cells VEC, mouse macrophage RAW cells; assay: uptake of MHI-148 by normal human or mouse cells in culture (FIG. 1); type: cell-based; settings: 100 μM, two hours
Description: as §1

[5] = test system: spontaneously developed prostate tumor; assay: imaging of spontaneous prostate tumor in TRAMP transgenic mouse with MHI-148 (FIG. 8); type: in vivo
Text: 10 nmol of MHI-148 was given to a 46 week-old TRAMP transgenic mouse with spontaneously developed prostate tumor mass and imaged after 4 hrs after MHI-148 injection (panel A). […] Surgical dissection of this mouse confirmed […] was present (panel C).

[6] = test system: human cancer cells: LNCaP, ARCaPE, ARCaPM, C4-2, PC-3, HepG2, MG63, MCF-7, RCC, T-24, HeLa, K562, H358; assay: uptake of MHI-148 by human cancer cells in culture (FIG. 1); type: cell-based; settings: 100 μM, two hours, T-medium with 5% fetal bovine serum, inverted microscope
Description: as §1

[7] = photostability of MHI-148; type: physicochemical
Cancer cell = assay: CellTiter 96 Aqueous One Solution Cell Proliferation Assay (FIG. 7); type: cell-based; settings: different concentrations, 48 hrs, T-medium 5% FBS
Description: Cancer cell were plated in 96-well plates in T-medium containing 5% FBS with different concentrations of MHI-148 for 48 hrs of incubation. Cell numbers were measured using CellTiter 96 Aqueous One Solution Cell Proliferation Assay (Promega, Madison, Wis.).

[8] = test system: human ARCaPE, ARCaPM, and C4-2 tumors; assay: detection of multiple tumors in one mouse with MHI-148 (FIG. 5); type: in vivo; settings: 10 nmol tail vein, 96 hrs
Description: A mouse had 5 pre-established human ARCaPE, ARCaPM, and C4-2 tumors in the back by subcutaneous injection of tumor cells. Four tumors were measured with 0.2-1.0 cm in diameter and one tumor was not detectable by visualization at the time of NHI-148 administration. […] Visual and palpation techniques could only detect four tumors, while MHI-148 (10 nmol), after tail vein administration, clearly gained access to all tumors in the live mouse and allowed tumor images to be detected in all five tumors.

C4-2 tumor = assay: imaging of live and necrotic intratibial C4-2 tumors with MHI-148 (FIG. 6); type: in vivo, mouse; settings: 10 nmol tail vein, imaged after 48 hrs
Description: C4-2 cells were injected into both sides of tibia of one mouse. When one tumor was developed to size with visible necrosis and the other tumor still in the fast growing phase, 10 nmol MHI-148 was given through tail vein. After 48 hrs, the mouse was imaged. […] The histopathology of the tumors was confirmed by the H/E stain (see upper right panel).

[9] = test system: human ARCaPM prostate cancer cells; assay: imaging of MHI-148 tagged ARCaPM cells injected into mice (FIG. 2B, C); type: in vivo, mouse; settings: one million ARCaPM cells tagged with 10 uM MHI-148
Description: as §2

[10] = test system: subcutaneous ARCaPM, intratibial C4-2, H358 and K562 tumors; assay: imaging of pre-established tumors in live mice with MHI-148 (FIG. 4); type: in vivo, mouse
Description: Subcutaneous ARCaPM and intratibial C4-2 tumors were established in live mice prior to the administration of MHI-148. The tumors measured about 0.5-1.0 cm in diameter at the time of imaging. 10 nmol of MHI-148 was given to mice through tail vein and imaged using Kodak multimodal-imaging system. Human lung (H358) and leukemia (K562) cancer cells were injected subcutaneously into one side of the shoulder of mice. When the tumors were about 1-2 cm in diameter, 10 nmol MHI-148 was given through tail vein and tumor images were taken at 96 hrs after MHI-148 administration.

[11] = test system: spontaneous prostate tumor in a TRAMP mouse; assay: imaging of spontaneous TRAMP prostate tumor, fresh and after fixation (FIG. 16B, C); type: in vivo; settings: TRAMP mouse spontaneous prostate tumors, FIG. 16 legend
Description: NIR imaging studies were performed to assess pharmacokinetics of the IR783 in vivo. […] This mouse was injected i.p with 0.2 μg/kg IR783 at 0 hrs. […] The dye retention in formalin fixed tissues can be as long as several weeks (data not shown).

ARCaPM cells = assay: confocal imaging of IR780 uptake and localization in ARCaPM cells (FIG. 11, 12); type: cell-based, human
Description: In FIG. 11, ARCaPM Cells were plated on live-cell imaging chambers from World Precision Instrument (Sarasota, Fla.) overnight. Cells were treated with IR-780 with different concentrations and were imaged using a Perkin-Elmer Ultraview ERS spinning disc confocal microscope. This system was mounted on a Zeiss Axiovert 200 m inverted microscope equipped with a 37° C. stage warmer, incubator, and CO2 perfusion. A x63 or x100 Zeiss oil objective (numerical aperture, 1.4) was used for all images and a Z-stack was created using the attached piezoelectric z-stepper motor. The 633 nm laser line of an […] (set at 60% power) was used to excite the IR-780 organic dye. For each comparison, the exposure time and laser intensity was kept identical for accurate intensity measurement. Pixel intensity was quantitated using Metamorph 6.1 (Universal Imaging, Downingtown, Pa.) and the mean pixel intensity was generated as grey level using the Region Statistics feature on the software.

[12] = test system: normal prostate fibroblasts (NPF), normal prostate epithelial cells (NPE), marrow stromal cells BMC; assay: uptake of IR780 by normal human cells in culture (FIG. 10); type: cell-based
[13] = test system: subcutaneous HepG2, C4-2, H358, HeLa, MCF-7 and ARCaPM tumors; assay: imaging of subcutaneous human tumors in mice with IR780 (FIG. 13); type: in vivo, mouse; settings: 5 n mol tail vein, tumors 0.5-1.0 cm
Description: Subcutaneous HepG2 (human liver cancer), C4-2 (human prostate androgen-independent and metastatic cancer), H358 (human lung cancer), HeLa (human cervical cancer), MCF-7 (human breast cancer) and ARCaPM (a highly bone and soft tissue metastatic human prostate cancer) cancers were established in live mice prior to the administration of IR-780. The tumor xenografts were measured about 0.5-1.0 cm in diameter at the time of imaging. 5 n mol of IR-780 were given to mice through tail vein and imaged using Kodak multimodal-imaging system. The distribution of IR-780 in tumor tissues was conformed by imaging of frozen sections under confocal microscope. The histopathology of the tumor was confirmed by H/E staining of the frozen tissue specimens and DAPI stained cell nuclei.

[14] = Description: Mice were injected with 20 μg/Kg of IR783 and IR780 (which was 100× of the imaging dose which was 0.2 μg/Kg) and results were compared for a 28 day period. […] Zero grams means the mouse died. ICG is a FDA approved dye used for several diagnostic purposes. ICG is considered to be nontoxic. ICG is used here as a measure of the toxicity of the tested compounds.
Toxicity test of dye based on body weight gained during the treatment period from 0 to 14 days.

[15] = tail vein injection, data not shown
[16] = test system: human cancer cells: ARCaPM, C4-2, PC-3, HepG2, MCF-7, RCC, T-24, HeLa, K562, H358; assay: uptake of IR780 by human cancer cells in culture (FIG. 10); type: cell-based; settings: 20 uM, 30 minutes, confocal microscope
Description: The uptake of IR780 by human cancer cells in culture was also studied. […] All the cells were cultured with 20 uM IR-780 in basal media (T-medium with 5% fetal bovine serum and 1% antibiotics) for 30 minutes and were imaged under confocal microscope.

In the case of `CC1(C)C(/C=C/C2=C(Cl)C(=C/C=C3/N(CCCCCC(=O)O)c4ccccc4C3(C)C)/CCC2)=[N+](CCCCCC(=O)O)c2ccccc21.[Br-]` [MHI-148], the “fluorescence of isolated liver, kidney and testis” value ([1]; 5 nmol tail vein, 6 hrs post administration) is reported as “positive”, the “fluorescence of isolated liver, kidney and testis” value ([1]; 5 nmol tail vein, 80 hrs post administration) is reported as “void of any fluorescence signaling” and the “time to clearance from normal organs (liver, kidney, testis, seminal vesicles)” value ([1]; live animals) is reported as ≤ 96 h. For the same molecule, the “MHI-148 uptake by the liver and kidney” value ([1]; normal mice, 5 nmol tail vein, 2 and 6 hrs) was “can be detected”, the “MHI-148 in live mice and dissected mouse tissues” value ([1]; normal mice, 5 nmol tail vein, by 96 hrs) was “no detectable MHI-148” and the “uptake of MHI-148” value [2] was “low uptake”. The “images of MHI-148 tagged ARCaPM cells in test tubes” value [3] was “intense images can be readily detected”, the “uptake of MHI-148” value [4] was “failed to yield any time- or concentration-dependent uptake” and the “imaging of prostate tumor mass” value ([5]; 46 week-old TRAMP mouse, 10 nmol, 4 hrs after injection) was “showed clear tumor in situ”. For the same molecule, the “signal in mouse without tumor” value ([5]; young age TRAMP mouse which harbored no tumor) was “no signal was detected”, the “uptake of MHI-148” value [6] was “significant uptake” and the photostability [7] was “relatively photostable”. For the same molecule, the “cancer cell growth (cell numbers)” value (Cancer cell) was “inhibition of cancer growth in vitro”, the “size of smallest tumor imaged” value [8] was < 2 mm^3 and the tumors imaged ([8]; mouse with 5 tumors) was “All five tumors were imaged”. The “uptake by live C4-2 tumor (right tibia)” value (C4-2 tumor) was “shown to uptake MHI-148”, the “uptake by necrotic or dead tumor cells (left side)” value (C4-2 tumor) was “failed to uptake MHI-148” and the “image of tagged cells injected into mouse tibia” value [9] was “can be seen in the intratibial space”. For the same molecule, the tumor images ([10]; 10 nmol tail vein, H358 and K562 images at 96 hrs) was “Clear tumor associated images are seen”, the “fate in tumors versus host” value ([10]; 96 hrs after administration) was “accumulated in tumors” and the “stability of dye in formalin fixation” value [11] was “stable in formalin fixation for weeks”.
In the case of `CCCN1/C(=C/C=C2\CCCC(/C=C/C3=[N+](CCC)c4ccccc4C3(C)C)=C2Cl)C(C)(C)c2ccccc21.[I-]` [IR780], the subcellular localization (ARCaPM cells; co-stained with mitochondrial tracker or lysosome tracker) is reported as “co-localized with mitochondrial, lysomomal and cytoplasmic compartments”, the “effect of BSP (organic anion transporter inhibitor) on uptake” value (ARCaPM cells; data not shown) is reported as “blocked by BSP” and the dependence of uptake (ARCaPM cells; different concentrations, live-cell confocal imaging) is reported as “time- and concentration-dependent uptake”. For the same molecule, the “uptake of IR-780” value ([12]; 20 uM, 30 minutes, confocal microscope) was “very low uptake”, the “uptake by normal prostate epithelial cells” value ([12]; data not shown) was “did not take up the dye” and the tumor images [13] was “clear tumor images can be detected”. It also gave a body weight ([14]; dose 1X (imaging dose 0.2 μg/Kg), 0 day) of 19.00 g, a body weight ([14]; dose 1X, 1 day) of 19.02 g and a body weight ([14]; dose 1X, 2 day) of 19.71 g. It also gave a body weight ([14]; dose 1X, 3 day) of 20.01 g, a body weight ([14]; dose 1X, 4 day) of 20.32 g and a body weight ([14]; dose 1X, 5 day) of 20.56 g. It also gave a body weight ([14]; dose 1X, 6 day) of 20.97 g, a body weight ([14]; dose 1X, 7 day) of 21.81 g and a body weight ([14]; dose 1X, 14 day) of 23.56 g. The body weight ([14]; dose 1X, 28 day) was 24.44 g, the body weight ([14]; dose 10X, 0 day) was 20.71 g and the body weight ([14]; dose 10X, 1 day) was 20.69 g. For the same molecule, the body weight ([14]; dose 10X, 2 day) was 20.70 g, the body weight ([14]; dose 10X, 3 day) was 21.03 g and the body weight ([14]; dose 10X, 4 day) was 21.24 g. For the same molecule, the body weight ([14]; dose 10X, 5 day) was 21.89 g, the body weight ([14]; dose 10X, 6 day) was 22.00 g and the body weight ([14]; dose 10X, 7 day) was 22.56 g. For the same molecule, the body weight ([14]; dose 10X, 14 day) was 24.00 g, the body weight ([14]; dose 10X, 28 day) was 24.56 g and the body weight ([14]; dose 100X (20 μg/Kg), 0 day) was 20.14 g. For the same molecule, the body weight ([14]; dose 100X, 1 day, zero grams means the mouse died) was 0 g, the body weight ([14]; dose 100X, 2 day, zero grams means the mouse died) was 0 g and the body weight ([14]; dose 100X, 3 day, zero grams means the mouse died) was 0 g. The body weight ([14]; dose 100X, 4 day, zero grams means the mouse died) was 0 g, the body weight ([14]; dose 100X, 5 day, zero grams means the mouse died) was 0 g and the body weight ([14]; dose 100X, 6 day, zero grams means the mouse died) was 0 g. The body weight ([14]; dose 100X, 7 day, zero grams means the mouse died) was 0 g, the body weight ([14]; dose 100X, 14 day, zero grams means the mouse died) was 0 g and the body weight ([14]; dose 100X, 28 day, zero grams means the mouse died) was 0 g. For the same molecule, the “uptake by normal mouse tissues” value [15] was “failed to uptake IR780” and the “uptake of IR-780” value [16] was “significant uptake”.
